Measurements reported in ChEMBL document CHEMBL1201862, “PubChem BioAssay data set” (2004).
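Dose response: 5 concentrations. Exposure: 48 h. Format: 96-well plates. Endpoint: linear interpolation; highest concentration if not reached. GI50 marks 50% less growth.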 Active and inactive are the calls of the source. Cut-off read from the data, not from the text of the source: active = GI50 up to about 1.1 µM and inactive = higher.

Tests used:
Assay in all cases: growth of human tumour cells (NCI), 48 h
T47D = system: T47D
ACHN = system: ACHN
UACC-257 = system: UACC-257
SR = system: SR
BT-549 = system: BT-549
NCI-H226 = system: NCI-H226
K562 = system: K562
MDA-MB-435 = system: MDA-MB-435
RXF 393 = system: RXF 393
OVCAR-8 = system: OVCAR-8
HL-60 = system: HL-60
HOP-92 = system: HOP-92
SNB-19 = system: SNB-19
A498 = system: A498
SF-268 = system: SF-268
NCI-H23 = system: NCI-H23
MDA-MB-231 = system: MDA-MB-231
SNB-75 = system: SNB-75
SF-539 = system: SF-539
TK-10 = system: TK-10

Compound | GI50 (T47D) | GI50 (ACHN) | GI50 (UACC-257) | GI50 (SR) | GI50 (BT-549) | GI50 (NCI-H226) | GI50 (K562) | GI50 (MDA-MB-435) | GI50 (RXF 393) | GI50 (OVCAR-8) | GI50 (HL-60) | GI50 (HOP-92) | GI50 (SNB-19) | GI50 (A498) | GI50 (SF-268) | GI50 (NCI-H23) | GI50 (MDA-MB-231) | GI50 (SNB-75) | GI50 (SF-539) | GI50 (TK-10)
CC(=O)O[C@H]1C[C@H]2[C@@H]([C@H](OC(C)=O)C[C@@H]3CC4(CC[C@@]32C)OOC2(CCCCC2)OO4)[C@@H]2CC[C@H]([C@H](C)CCC(=O)O)[C@@]12C | 7 µM (inactive) | 7.24 µM (inactive) | 11.4 µM (inactive) | 2.44 µM (inactive) | 4.24 µM (inactive) | 7.29 µM (inactive) | 5.57 µM (inactive) | 5.75 µM (inactive) | 13.5 µM (inactive) | 4.08 µM (inactive) | 4.15 µM (inactive) | 1.98 µM (inactive) | 6.71 µM (inactive) | 13.3 µM (inactive) | 6.81 µM (inactive) | 4.13 µM (inactive) | 14.1 µM (inactive) | 3.61 µM (inactive) | 7.85 µM (inactive) | 12.4 µM (inactive)
Oc1ccc(Cc2nccc3cc(O)c(O)cc23)cc1O | 30.4 µM (inactive) | 88.1 µM (inactive) | 20.8 µM (inactive) | 19.6 µM (inactive) | 54.3 µM (inactive) | 46.2 µM (inactive) | 26.8 µM (inactive) | 51.3 µM (inactive) | 37.6 µM (inactive) | 45.7 µM (inactive) | 26.3 µM (inactive) | 90.2 µM (inactive) | 55.2 µM (inactive) | 45 µM (inactive) | 51.9 µM (inactive) | 38.1 µM (inactive) | 97.1 µM (inactive) | 21 µM (inactive) | 40.4 µM (inactive) | 32.7 µM (inactive)
Nc1ccc(C(=O)N2CCC[C@H]2CO)c(N)c1 | > 100 µM (inactive) | > 100 µM (inactive) | > 100 µM (inactive) | > 100 µM (inactive) | > 100 µM (inactive) | > 100 µM (inactive) | > 100 µM (inactive) | > 100 µM (inactive) | > 100 µM (inactive) | > 100 µM (inactive) | > 100 µM (inactive) | > 100 µM (inactive) | > 100 µM (inactive) | > 100 µM (inactive) | > 100 µM (inactive) | > 100 µM (inactive) | > 100 µM (inactive) | > 100 µM (inactive) | > 100 µM (inactive) | > 100 µM (inactive)
C/C(=N\N=C(\N)OB(F)F)c1ccccn1 | > 100 µM (inactive) | 81.1 µM (inactive) | > 100 µM (inactive) | 76.6 µM (inactive) | > 100 µM (inactive) | 40.8 µM (inactive) | 46.7 µM (inactive) | > 100 µM (inactive) | 9.33 µM (inactive) | 75 µM (inactive) | 63.5 µM (inactive) | 12.7 µM (inactive) | > 100 µM (inactive) | > 100 µM (inactive) | > 100 µM (inactive) | > 100 µM (inactive) | 24.6 µM (inactive) | 7.23 µM (inactive) | > 100 µM (inactive) | 59.7 µM (inactive)
COc1cc([C@H]2c3[nH]c4ccccc4c3C[C@H]3COC(=O)N32)cc(OC)c1O | 42.4 µM (inactive) | 0.163 µM (active) | > 100 µM (inactive) | 0.0132 µM (active) | 29.2 µM (inactive) | 0.422 µM (active) | 0.0153 µM (active) | < 0.01 µM (active) | 0.0405 µM (active) | 0.131 µM (active) | 0.0176 µM (active) | 2.27 µM (inactive) | 4.9 µM (inactive) | 0.0509 µM (active) | 0.0221 µM (active) | 0.0748 µM (active) | 0.0408 µM (active) | 0.0324 µM (active) | 0.0396 µM (active) | 0.807 µM (active)
O=S(=O)(O)n1ccnc1 | > 100 µM (inactive) | > 100 µM (inactive) | > 100 µM (inactive) | > 100 µM (inactive) | > 100 µM (inactive) | > 100 µM (inactive) | > 100 µM (inactive) | > 100 µM (inactive) | > 100 µM (inactive) | > 100 µM (inactive) | > 100 µM (inactive) | > 100 µM (inactive) | > 100 µM (inactive) | > 100 µM (inactive) | > 100 µM (inactive) | > 100 µM (inactive) | > 100 µM (inactive) | > 100 µM (inactive) | > 100 µM (inactive) | > 100 µM (inactive)
